Reference: US7326689B2, “Pseudomycins useful against plant diseases” (Eli Lilly and Company, priority 2000, dated 2008)

Experiments:
Experiment in all cases: Antifungal growth assay in potato dextrose broth, 24-well
Assay type in all cases: cell-based
Drechslera portulacae = details: 3x assays
Description: (§1) Fungi to be tested were propagated on potato dextrose agar (PDA) plates at room temperature. Stock solutions of pseudomycins and depsipeptide were suspended in dimethylsulfoxide (DMSO) (Sigma) at 5 mg/ml and stored at −20C. Serial dilutions of compounds were done the day of the experiment. All serial dilutions were made in DMSO. […] These are noted in the raw data section.
(§2) Assays were performed in 24-well cell culture clusters (Costar 3524), with 990 ul potato dextrose broth (PDB, Difco) and 10 ul of the compound to be tested in each well. Initial concentrations tested were 50-1.56 ug/ml (final concentration of pseudomycin). Actual concentrations of pseudomycins tested were 50, 25, 12.5, 6.25, 3.12 and 1.56 ug/ml. Each well was inoculated with the appropriate fungus. Unless noted, the fungal inoculum consisted of an ˜4 mm^2 piece of PDA with fungal mycelium. The exceptions were as follows. Ustilago maydis: this fungus grows much like a yeast on PDA, and cells were scraped from the PDA stock plate, resuspended in PDB and 10 ul inoculum added to each well. Monilinia sp.: this fungal mycelium grows as a very loose sheet on top of PDA and would not adhere to agar blocks. Fungal mycelium was ground with a metal rod in 500 ul PDB and 10 ul inoculum was added to each well. Mycosphaeella fijiensis, Septoria passerinii, Septoria triticii: these fungi all grow very slowly and the results were difficult to score if a small piece of agar with fungal mycelium on it was used as an inoculum. For these fungi, the mycelium was ground with a metal rod in 500 ul PDB and 10 ul inoculum was added to each well.
(§3) Wells were scored for fungal growth at two days and five days. Some slow growing fungi were scored at later days for growth because assessment was not possible at two or five days. Growth was scored by comparison to a control consisting of fungus inoculated into 990 ul potato dextrose broth and 10 ul of DMSO (Dimethylsulfoxide). An additional control consisting of fungal inoculum in PDB only was performed to ensure that the DMSO was not inhibitory to fungal growth.
(§4) For assays that were repeated, new stock solutions were made from a second shipment of pseudomycins. Note that pseudomycin B′ and depsipeptide stock solutions were remade from first shipment materials because these were not included in the second shipment. […] Actual concentrations of pseudomycins tested were 2, 1, 0.5, 0.25, 0.125 and 0.0625 ug/ml. A-PO4 and A-FB=pseudomycin A phosphate salt and free base respectively.
(§5) Table 2: Two day results—concentration indicated is lowest level of compound (ug /ml) that results is no growth. NI, no inhibition; p (partial), at least 50% inhibited; -, not determined. If number of assays was greater than one, number of assays performed on the fungus is noted in parentheses. For several slow-growing fungi, days elapsed before observation (if different than two) are noted.
(§6) Table 3: Five day results—concentration indicated is lowest level of compound (ug /ml) that results in no growth. NI, no inhibition; p (partial), at least 50% inhibited; -, not performed on the fungus is noted in parentheses. For several slow-growing fungi, days elapsed before observation (if different than five) are noted.

Geotrichim candidum = details: 3x assays
Description: as §1, §2, §3, §4, §5, §6

Monilinia sp. = details: 2x assays
Description: as §1, §2, §3, §4, §5, §6

[1] = tested on: Mycosphaeella fijiensis (8088/88); details: 3x assays
Description: as §1, §2, §3, §4, §5, §6

[2] = tested on: Mycosphaeella fijiensis (Sigatoka); details: 3x assays
Description: as §1, §2, §3, §4, §5, §6

Penicillium roqueforti = details: 3x assays
Description: as §1, §2, §3, §4, §5, §6

Rhizoctonia solani = details: 2x assays
Description: as §1, §2, §3, §4, §5, §6

Septoria passerinii = details: 3x assays
Description: as §1, §2, §3, §4, §5, §6

Septoria tritici = details: 3x assays
Description: as §1, §2, §3, §4, §5, §6

Ustilago maydis = details: 3x assays
Description: as §1, §2, §3, §4, §5, §6

Botrytis alli = tested on: Botrytis alli; design: key: NI, no inhibition; p (partial), at least 50% inhibited; details: 2x assays
Description: as §1, §2, §3, §4, §5, §6

Cochliobolus carbonum = tested on: Cochliobolus carbonum; design: key: NI, no inhibition; p (partial), at least 50% inhibited
Description: as §1, §2, §3, §4, §5, §6

Diplodia natalensis = tested on: Diplodia natalensis; design: key: NI, no inhibition; p (partial), at least 50% inhibited
Description: as §1, §2, §3, §4, §5, §6

[3] = tested on: Drechslera tritici-repentis; design: key: NI, no inhibition; p (partial), at least 50% inhibited
Description: as §1, §2, §3, §4, §5, §6

Fusarium culmorum = tested on: Fusarium culmorum; design: key: NI, no inhibition; p (partial), at least 50% inhibited
Description: as §1, §2, §3, §4, §5, §6

[4] = tested on: Pestalotiopsis microspora NE-32; design: key: NI, no inhibition; p (partial), at least 50% inhibited
Description: as §1, §2, §3, §4, §5, §6

Phyllosticta maydis = tested on: Phyllosticta maydis; design: key: NI, no inhibition; p (partial), at least 50% inhibited
Description: as §1, §2, §3, §4, §5, §6

Phytophthora cactorum = tested on: Phytophthora cactorum; design: key: NI, no inhibition; p (partial), at least 50% inhibited
Description: as §1, §2, §3, §4, §5, §6

Phytophthora ultimum = tested on: Phytophthora ultimum; design: key: NI, no inhibition; p (partial), at least 50% inhibited
Description: as §1, §2, §3, §4, §5, §6

Tapesia acuformis = tested on: Tapesia acuformis; design: key: NI, no inhibition; p (partial), at least 50% inhibited; details: 2x assays
Description: as §1, §2, §3, §4, §5, §6

Tapesia yallundae = tested on: Tapesia yallundae; design: key: NI, no inhibition; p (partial), at least 50% inhibited; details: 2x assays
Description: as §1, §2, §3, §4, §5, §6

[5] = Table 2 (two day results), observed at 7 day
[6] = Table 3 (five day results), observed at 21 days

Measured: lowest level of compound that results in no growth

pseudomycin A-FB
25 µg/mL: [3]; two day results, 2x assays | Tapesia yallundae; five day results
0.25 µg/mL: Drechslera portulacae; Table 3 (five day results), observed at 9 day | Drechslera portulacae; two day results | [1]; [5] | [1]; [6] | Septoria tritici; five day results | Septoria tritici; two day results
0.5 µg/mL: [2]; [5]
12.5 µg/mL: Monilinia sp.; five day results | Tapesia yallundae; two day results
NI: Botrytis alli; five day results | Botrytis alli; two day results | Cochliobolus carbonum; five day results | Cochliobolus carbonum; two day results | Diplodia natalensis; five day results | Diplodia natalensis; two day results | [3]; five day results | Fusarium culmorum; five day results | Fusarium culmorum; two day results | [4]; five day results | Phyllosticta maydis; five day results | Phytophthora cactorum; five day results | Phytophthora cactorum; two day results | Phytophthora ultimum; five day results | Phytophthora ultimum; two day results | Tapesia acuformis; five day results | Tapesia acuformis; two day results
6.25 µg/mL: Geotrichim candidum; five day results | Monilinia sp.; two day results | Rhizoctonia solani; two day results
1 µg/mL: [2]; [6] | Penicillium roqueforti; two day results | Ustilago maydis; five day results | Ustilago maydis; two day results
0.0625 µg/mL: Septoria passerinii; five day results, listed as pseudomycin A (free base)
p at 50: [4]; two day results | Phyllosticta maydis; two day results
0.06 µg/mL: Septoria passerinii; five day results | Septoria passerinii; two day results
3.12 µg/mL: Geotrichim candidum; two day results | Penicillium roqueforti; five day results
50 µg/mL: Rhizoctonia solani; five day results

pseudomycin A-PO4
0.06 µg/mL: Drechslera portulacae; Table 3 (five day results), observed at 9 day, listed as A-PO4 | Drechslera portulacae; two day results
1 µg/mL: [2]; [5] | [2]; [6] | Ustilago maydis; five day results
50 µg/mL: Botrytis alli; two day results | [3]; two day results, 2x assays | Tapesia acuformis; five day results | Tapesia acuformis; two day results | Tapesia yallundae; five day results
0.25 µg/mL: [1]; [6] | Septoria tritici; five day results | Septoria tritici; two day results
0.125 µg/mL: Septoria passerinii; two day results
0.12 µg/mL: [1]; [5] | Septoria passerinii; five day results
6.25 µg/mL: Geotrichim candidum; five day results | Rhizoctonia solani; two day results
3.12 µg/mL: Penicillium roqueforti; five day results
NI: Cochliobolus carbonum; five day results | Cochliobolus carbonum; two day results | Diplodia natalensis; five day results | Diplodia natalensis; two day results | Fusarium culmorum; five day results | Fusarium culmorum; two day results | [4]; five day results | Phyllosticta maydis; five day results | Phytophthora cactorum; five day results | Phytophthora cactorum; two day results | Phytophthora ultimum; five day results | Phytophthora ultimum; two day results
0.0625 µg/mL: Drechslera portulacae; Table 3 (five day results), observed at 9 day, listed as pseudomycin A (PO4)
25 µg/mL: Tapesia yallundae; two day results
12.5 µg/mL: Geotrichim candidum; two day results | Monilinia sp.; five day results | Monilinia sp.; two day results | Rhizoctonia solani; five day results
0.5 µg/mL: Penicillium roqueforti; two day results | Ustilago maydis; two day results
p at 50: Botrytis alli; five day results | [3]; five day results | [4]; two day results | Phyllosticta maydis; two day results
